What follows are molecules tested against T1, Cholinesterase (Homo sapiens, UniProt P06276) (assay: Inhibitory concentration against butyrylcholinesterase).
T1 sequence (P06276 whole entry): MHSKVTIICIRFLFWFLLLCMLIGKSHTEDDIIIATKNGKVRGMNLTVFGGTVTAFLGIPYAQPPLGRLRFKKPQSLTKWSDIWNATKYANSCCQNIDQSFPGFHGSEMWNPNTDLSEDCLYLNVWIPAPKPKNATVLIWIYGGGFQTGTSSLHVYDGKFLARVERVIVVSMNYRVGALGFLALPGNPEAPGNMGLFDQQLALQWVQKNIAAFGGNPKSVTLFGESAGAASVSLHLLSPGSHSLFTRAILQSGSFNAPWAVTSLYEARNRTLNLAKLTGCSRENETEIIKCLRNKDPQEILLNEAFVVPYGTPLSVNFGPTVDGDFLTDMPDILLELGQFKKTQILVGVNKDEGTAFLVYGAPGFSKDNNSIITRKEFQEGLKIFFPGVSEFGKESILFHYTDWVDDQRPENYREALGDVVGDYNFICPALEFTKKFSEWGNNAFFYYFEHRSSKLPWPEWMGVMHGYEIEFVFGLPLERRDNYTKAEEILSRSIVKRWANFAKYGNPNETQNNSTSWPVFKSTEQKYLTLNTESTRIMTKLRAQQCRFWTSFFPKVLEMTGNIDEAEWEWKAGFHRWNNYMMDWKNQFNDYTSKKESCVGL

In order of falling IC50:
1. Cc1c(N2CCN(C)CC2)nc2ccccc2c1C(=O)NCCCCCCCNc1c2c(nc3ccccc13)CCCC2  40 nM
2. Cc1c(Cl)nc2ccccc2c1C(=O)NCCCCCCCNc1c2c(nc3ccccc13)CCCC2  32 nM

These molecules were tested against T1, Cholinesterase.

`Cc1c(N2CCN(C)CC2)nc2ccccc2c1C(=O)N(C)Cc1ccccc1` and `CCOC(=O)c1c(C)c(N2CCN(C)CC2)nc2ccccc12` cannot be ordered by IC50: greater than 10000 nM for the first, greater than 10000 nM for the second.

These molecules were tested against T2, Serotonin 3 (5-HT3) receptor (Rattus norvegicus, UniProt P35563+Q9JJ16).
T2 sequence (P35563 whole entry): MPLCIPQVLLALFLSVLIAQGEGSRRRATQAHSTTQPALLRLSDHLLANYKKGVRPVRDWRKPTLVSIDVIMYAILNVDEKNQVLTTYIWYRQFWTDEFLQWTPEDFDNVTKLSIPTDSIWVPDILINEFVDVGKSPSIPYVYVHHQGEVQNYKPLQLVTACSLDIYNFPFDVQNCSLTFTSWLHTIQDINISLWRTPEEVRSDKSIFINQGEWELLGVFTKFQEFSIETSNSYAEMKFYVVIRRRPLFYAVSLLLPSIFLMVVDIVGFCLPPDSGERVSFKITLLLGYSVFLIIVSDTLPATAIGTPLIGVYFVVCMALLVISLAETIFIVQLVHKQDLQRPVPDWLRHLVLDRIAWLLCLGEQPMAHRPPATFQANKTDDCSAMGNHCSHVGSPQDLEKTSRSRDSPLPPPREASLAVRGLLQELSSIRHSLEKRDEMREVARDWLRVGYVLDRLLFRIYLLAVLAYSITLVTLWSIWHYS
T2 sequence (Q9JJ16 whole entry): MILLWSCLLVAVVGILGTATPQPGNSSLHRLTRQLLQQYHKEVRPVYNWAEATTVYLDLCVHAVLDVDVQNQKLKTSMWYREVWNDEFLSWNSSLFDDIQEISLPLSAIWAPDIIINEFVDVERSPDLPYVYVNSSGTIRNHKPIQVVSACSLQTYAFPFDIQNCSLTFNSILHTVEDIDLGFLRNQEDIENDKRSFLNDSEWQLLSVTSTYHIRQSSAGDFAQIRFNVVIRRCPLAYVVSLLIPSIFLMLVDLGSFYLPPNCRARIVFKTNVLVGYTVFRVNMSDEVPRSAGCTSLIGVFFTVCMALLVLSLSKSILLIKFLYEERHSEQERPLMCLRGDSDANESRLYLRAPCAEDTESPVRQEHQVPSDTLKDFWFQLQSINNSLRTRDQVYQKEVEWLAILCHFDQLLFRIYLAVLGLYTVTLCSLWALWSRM

In order of falling Ki:
1. CCCCCCN(CCCCCC)C(=O)c1c(C)c(N2CCN(C)CC2)nc2ccccc12  188 nM
2. CCCCCN(CCCCC)C(=O)c1c(C)c(N2CCN(C)CC2)nc2ccccc12  19 nM
3. CCCc1c(N2CCN(C)CC2)nc2ccccc2c1C(=O)N(C)Cc1ccccc1  14 nM
4. Cc1c(N2CCN(C)CC2)nc2ccccc2c1C(=O)N(C)c1ccc(Cl)cc1  13 nM
5. CCc1c(N2CCN(C)CC2)nc2ccccc2c1C(=O)N(C)Cc1ccccc1  10 nM
6. CN1CCN(c2nc3ccccc3c3c2CN(Cc2ccccc2)C3=O)CC1  6.2 nM
7. Cc1c(N2CCN(C)CC2)nc2ccccc2c1C(=O)NCCCCCCCNc1c2c(nc3ccccc13)CCCC2  5.6 nM
8. CCC(C)N1Cc2c(N3CCN(C)CC3)nc3ccccc3c2C1=O (stereo not drawn)  4.2 nM
9. CCCN1Cc2c(N3CCN(C)CC3)nc3ccccc3c2C1=O  3.6 nM
10. CCN1Cc2c(N3CCN(C)CC3)nc3ccccc3c2C1=O  3 nM
11. CN1CCN(c2nc3ccccc3c(CO)c2CO)CC1  2.7 nM
12. CN1CCN(c2nc3ccccc3c3c2COC3=O)CC1  2.4 nM
13. Cc1c(N2CCN(C)CC2)nc2ccccc2c1C(=O)N(C(C)C)C(C)C  2.2 nM
14. CN1CCN(c2nc3ccccc3c3c2CN(C)C3=O)CC1  2.1 nM
15. Cc1c(N2CCN(C)CC2)nc2ccccc2c1C(=O)N1CCCC1  1.6 nM
16. CCN(CC)C(=O)c1cc(N2CCN(C)CC2)nc2ccccc12  1.6 nM
17. CCCc1c(N2CCN(C)CC2)nc2ccccc2c1C(=O)N(CCC)CCC  1.2 nM
18. CCCN(CCC)C(=O)c1c(CC)c(N2CCN(C)CC2)nc2ccccc12  1.1 nM
19. CCCc1c(N2CCN(C)CC2)nc2ccccc2c1C(=O)N(CC)CC  0.92 nM
20. CCOC(=O)c1cc(N2CCN(C)CC2)nc2ccccc12  0.85 nM
21. Cc1c(N2CCN(C)CC2)nc2ccccc2c1C(=O)c1ccccc1  0.84 nM
22. CCCCN(CCCC)C(=O)c1c(C)c(N2CCN(C)CC2)nc2ccccc12  0.78 nM
23. CCCN(CCC)C(=O)c1cc(N2CCN(C)CC2)nc2ccccc12  0.68 nM
24. CCOC(=O)c1c(C)c(N2CCNCC2)nc2ccccc12  0.56 nM
25. Cc1c(N2CCN(C)CC2)nc2ccccc2c1C(=O)N(C)Cc1ccccc1  0.55 nM
26. CCc1c(N2CCN(C)CC2)nc2ccccc2c1C(=O)N(CC)CC  0.51 nM
27. C#CCN(C)C(=O)c1c(C)c(N2CCN(C)CC2)nc2ccccc12  0.45 nM
28. CCOC(=O)c1c(C)c(N2CCN(C)CC2)nc2ccccc12  0.43 nM
29. CN1CCN(c2cc(C(=O)N(C)Cc3ccccc3)c3ccccc3n2)CC1  0.41 nM
30. CCN(CC)C(=O)c1c(C)c(N2CCN(C)CC2)nc2ccccc12  0.37 nM
31. CN1CCN(c2nc3ccccc3c3c2CCC3)CC1  0.24 nM
32. CCOC(=O)c1c(CC)c(N2CCN(C)CC2)nc2ccccc12  0.21 nM
33. CCOC(=O)c1c(N2CCN(C)CC2)nc2ccccc2c1C  0.17 nM
34. CCCN(CCC)C(=O)c1c(C)c(N2CCN(C)CC2)nc2ccccc12  0.11 nM
35. CCCc1c(N2CCN(C)CC2)nc2ccccc2c1C(=O)OCC  0.08 nM

The molecules below were run against T3, Acetylcholinesterase (Homo sapiens, UniProt P22303).
T3 sequence (P22303 whole entry): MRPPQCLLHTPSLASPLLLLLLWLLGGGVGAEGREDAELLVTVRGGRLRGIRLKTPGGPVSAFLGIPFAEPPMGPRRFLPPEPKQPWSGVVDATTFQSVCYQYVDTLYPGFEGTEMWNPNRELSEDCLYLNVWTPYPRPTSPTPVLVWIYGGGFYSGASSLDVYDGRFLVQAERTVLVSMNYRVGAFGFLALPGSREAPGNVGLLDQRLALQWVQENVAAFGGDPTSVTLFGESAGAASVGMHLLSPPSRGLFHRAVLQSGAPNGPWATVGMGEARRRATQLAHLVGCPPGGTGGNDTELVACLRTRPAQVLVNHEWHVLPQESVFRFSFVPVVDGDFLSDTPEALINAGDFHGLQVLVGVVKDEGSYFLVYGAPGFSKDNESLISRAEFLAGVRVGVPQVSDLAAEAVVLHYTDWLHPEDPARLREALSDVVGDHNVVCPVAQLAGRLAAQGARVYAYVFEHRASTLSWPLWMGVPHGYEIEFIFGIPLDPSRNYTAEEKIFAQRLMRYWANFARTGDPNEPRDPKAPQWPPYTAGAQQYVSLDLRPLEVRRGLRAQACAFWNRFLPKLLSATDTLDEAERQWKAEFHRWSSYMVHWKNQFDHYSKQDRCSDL
Description: (§1) Inhibitory concentration against human acetylcholinesterase

`Cc1c(N2CCN(C)CC2)nc2ccccc2c1C(=O)N(C)Cc1ccccc1` and `CCOC(=O)c1c(C)c(N2CCN(C)CC2)nc2ccccc12` cannot be ordered by IC50: greater than 10000 nM for the first, greater than 10000 nM for the second.

Target: T3, Acetylcholinesterase
Remark: another data set of the same source
Description: as §1

In order of falling IC50:
1. Cc1c(N2CCN(C)CC2)nc2ccccc2c1C(=O)NCCCCCCCNc1c2c(nc3ccccc13)CCCC2  4.1 nM
2. Cc1c(Cl)nc2ccccc2c1C(=O)NCCCCCCCNc1c2c(nc3ccccc13)CCCC2  3 nM
